According to patent EP4467141A1, “PYRAZOLO-QUINOLINES AS SELECTIVE INHIBITORS OF GENOTOXIC STRESS-INDUCED IKK/NF- KB PATHWAYS FOR CANCER THERAPY” (Max-Delbrück-Centrum für Molekulare Medizin in der …, priority 2023, dated 2024):

Key:
Test in all cases: Kinase panel study
Assay type in all cases: biochemical
Conditions in all cases: read-out: Percentage of inhibition; for inhibition at 1 µM: 1000nM; for inhibition at 10 µM: 10000nM
ABL1 F317I = biological target: T1, ABL1 F317I (Homo sapiens, UniProt P00519, F317I)
T1 construct: purchased Thermo Fisher Scientific
T1 sequence (P00519 whole entry F317I): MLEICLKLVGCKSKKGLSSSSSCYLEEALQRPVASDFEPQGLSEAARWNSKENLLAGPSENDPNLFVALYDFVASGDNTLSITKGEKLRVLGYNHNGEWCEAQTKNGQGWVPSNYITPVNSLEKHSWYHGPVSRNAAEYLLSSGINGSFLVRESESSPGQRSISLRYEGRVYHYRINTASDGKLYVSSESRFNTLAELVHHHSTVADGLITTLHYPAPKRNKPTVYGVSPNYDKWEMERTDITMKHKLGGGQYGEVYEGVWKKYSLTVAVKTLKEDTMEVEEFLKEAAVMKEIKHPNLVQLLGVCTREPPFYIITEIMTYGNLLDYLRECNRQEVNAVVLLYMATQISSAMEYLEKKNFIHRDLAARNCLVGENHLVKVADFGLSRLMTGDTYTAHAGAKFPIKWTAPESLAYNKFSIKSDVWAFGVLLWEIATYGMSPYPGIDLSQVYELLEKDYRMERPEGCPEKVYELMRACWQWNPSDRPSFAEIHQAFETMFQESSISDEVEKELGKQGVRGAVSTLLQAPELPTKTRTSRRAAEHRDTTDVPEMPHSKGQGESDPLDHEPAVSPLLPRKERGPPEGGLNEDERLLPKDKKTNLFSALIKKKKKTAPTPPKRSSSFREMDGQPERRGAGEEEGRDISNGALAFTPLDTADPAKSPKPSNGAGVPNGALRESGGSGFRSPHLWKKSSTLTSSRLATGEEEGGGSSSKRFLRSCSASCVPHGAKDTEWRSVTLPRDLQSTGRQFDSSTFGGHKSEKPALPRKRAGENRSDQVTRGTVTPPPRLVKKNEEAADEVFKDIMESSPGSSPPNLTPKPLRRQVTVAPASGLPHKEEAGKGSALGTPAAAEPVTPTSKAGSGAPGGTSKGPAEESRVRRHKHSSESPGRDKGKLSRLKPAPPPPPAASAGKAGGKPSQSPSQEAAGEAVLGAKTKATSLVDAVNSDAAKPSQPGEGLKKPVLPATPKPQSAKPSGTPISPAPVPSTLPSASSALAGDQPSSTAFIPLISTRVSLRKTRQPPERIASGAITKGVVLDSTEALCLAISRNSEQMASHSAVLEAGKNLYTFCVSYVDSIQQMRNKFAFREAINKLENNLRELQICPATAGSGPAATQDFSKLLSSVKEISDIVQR
Method in brief: (§1)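 Readout is percentage kinase inhibition. Testing used 1 µM or 10 µM compound in externally run ZLyte/Adapta in vitro assays, and IC50 values were derived within the same panel.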

ABL1 F317L = biological target: T2, ABL1 F317L (Homo sapiens, UniProt P00519, F317L)
T2 construct: purchased Thermo Fisher Scientific
T2 sequence (P00519 whole entry F317L): as the sequence (P00519 whole entry F317I) above, with I317L counted along it
Method in brief: as §1

CDK18/cyclin Y = biological target: T3, CDK18/cyclin Y (Homo sapiens, UniProt Q07002)
T3 construct: purchased Thermo Fisher Scientific
Method in brief: as §1

CDK4/cyclin D1 = biological target: T4, CDK4/cyclin D1 (Homo sapiens, UniProt P11802)
T4 construct: purchased Thermo Fisher Scientific
Method in brief: as §1

DAPK1 = biological target: T5, DAPK1 (Homo sapiens, UniProt P53355)
T5 construct: purchased Thermo Fisher Scientific
Method in brief: as §1

EPHA5 = biological target: T6, EPHA5 (Homo sapiens, UniProt P54756)
T6 construct: purchased Thermo Fisher Scientific
T6 sequence (P54756 25-1037): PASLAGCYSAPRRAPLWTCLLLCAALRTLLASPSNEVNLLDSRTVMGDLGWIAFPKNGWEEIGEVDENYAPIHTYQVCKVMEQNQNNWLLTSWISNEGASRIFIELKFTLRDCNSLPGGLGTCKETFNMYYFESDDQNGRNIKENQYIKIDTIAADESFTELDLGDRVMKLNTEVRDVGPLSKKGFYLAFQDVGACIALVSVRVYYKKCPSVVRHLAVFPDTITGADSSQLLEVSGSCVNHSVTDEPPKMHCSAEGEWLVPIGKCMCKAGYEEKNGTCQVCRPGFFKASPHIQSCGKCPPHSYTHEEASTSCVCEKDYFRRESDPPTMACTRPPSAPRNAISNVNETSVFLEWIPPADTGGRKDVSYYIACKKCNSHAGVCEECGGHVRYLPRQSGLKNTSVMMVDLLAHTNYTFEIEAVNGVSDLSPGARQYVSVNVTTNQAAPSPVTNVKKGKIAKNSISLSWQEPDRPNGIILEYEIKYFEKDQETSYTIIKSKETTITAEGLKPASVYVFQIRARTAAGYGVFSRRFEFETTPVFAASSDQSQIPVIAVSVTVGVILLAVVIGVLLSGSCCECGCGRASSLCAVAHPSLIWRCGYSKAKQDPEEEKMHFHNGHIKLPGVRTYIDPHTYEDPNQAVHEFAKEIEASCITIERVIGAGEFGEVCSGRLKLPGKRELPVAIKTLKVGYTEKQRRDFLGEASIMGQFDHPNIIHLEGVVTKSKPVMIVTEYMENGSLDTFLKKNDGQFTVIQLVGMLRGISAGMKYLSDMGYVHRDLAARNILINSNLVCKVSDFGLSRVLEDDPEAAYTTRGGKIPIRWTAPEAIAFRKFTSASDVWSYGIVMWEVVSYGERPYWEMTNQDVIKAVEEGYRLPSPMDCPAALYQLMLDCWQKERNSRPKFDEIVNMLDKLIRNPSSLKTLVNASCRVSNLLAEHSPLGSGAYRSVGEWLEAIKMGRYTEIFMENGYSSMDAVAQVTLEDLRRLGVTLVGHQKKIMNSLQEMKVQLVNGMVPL
Method in brief: as §1

FRK (PTK5) = biological target: T7, FRK (PTK5) (Homo sapiens, UniProt P42685)
T7 construct: purchased Thermo Fisher Scientific
T7 sequence (P42685 whole entry): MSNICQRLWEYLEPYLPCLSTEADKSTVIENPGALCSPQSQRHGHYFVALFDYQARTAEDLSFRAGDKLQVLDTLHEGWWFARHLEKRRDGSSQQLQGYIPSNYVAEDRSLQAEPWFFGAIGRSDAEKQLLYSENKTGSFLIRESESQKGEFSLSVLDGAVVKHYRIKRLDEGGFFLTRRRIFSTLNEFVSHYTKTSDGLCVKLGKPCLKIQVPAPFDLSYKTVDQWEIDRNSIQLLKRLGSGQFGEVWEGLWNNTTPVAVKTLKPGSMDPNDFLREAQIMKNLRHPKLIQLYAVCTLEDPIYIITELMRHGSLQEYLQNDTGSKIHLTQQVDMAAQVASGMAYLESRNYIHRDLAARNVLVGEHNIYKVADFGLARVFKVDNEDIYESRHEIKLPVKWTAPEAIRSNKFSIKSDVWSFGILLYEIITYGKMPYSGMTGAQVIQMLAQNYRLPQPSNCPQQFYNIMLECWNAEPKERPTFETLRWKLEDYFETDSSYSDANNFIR
Method in brief: as §1

MAPKAPK2 = biological target: T8, MAPKAPK2 (Homo sapiens, UniProt P49137)
T8 construct: purchased Thermo Fisher Scientific
T8 sequence (P49137 whole entry): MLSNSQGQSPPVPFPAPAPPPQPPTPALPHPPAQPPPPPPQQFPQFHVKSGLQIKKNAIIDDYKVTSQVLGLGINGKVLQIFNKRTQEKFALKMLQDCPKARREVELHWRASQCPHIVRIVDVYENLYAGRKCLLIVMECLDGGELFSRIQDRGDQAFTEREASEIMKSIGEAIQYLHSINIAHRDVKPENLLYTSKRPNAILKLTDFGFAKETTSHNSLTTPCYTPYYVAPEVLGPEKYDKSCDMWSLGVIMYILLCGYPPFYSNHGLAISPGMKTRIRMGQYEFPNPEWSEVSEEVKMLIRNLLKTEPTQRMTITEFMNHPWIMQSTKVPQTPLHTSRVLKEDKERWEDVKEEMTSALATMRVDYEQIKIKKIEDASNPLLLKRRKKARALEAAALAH
Method in brief: as §1

PI4KA (PI4K alpha) = biological target: T9, PI4KA (PI4K alpha) (Homo sapiens, UniProt P42356)
T9 construct: purchased Thermo Fisher Scientific
Method in brief: as §1

PRKCD (PKC delta) = biological target: T10, PRKCD (PKC delta) (Homo sapiens, UniProt Q05655)
T10 construct: purchased Thermo Fisher Scientific
T10 sequence (Q05655 whole entry): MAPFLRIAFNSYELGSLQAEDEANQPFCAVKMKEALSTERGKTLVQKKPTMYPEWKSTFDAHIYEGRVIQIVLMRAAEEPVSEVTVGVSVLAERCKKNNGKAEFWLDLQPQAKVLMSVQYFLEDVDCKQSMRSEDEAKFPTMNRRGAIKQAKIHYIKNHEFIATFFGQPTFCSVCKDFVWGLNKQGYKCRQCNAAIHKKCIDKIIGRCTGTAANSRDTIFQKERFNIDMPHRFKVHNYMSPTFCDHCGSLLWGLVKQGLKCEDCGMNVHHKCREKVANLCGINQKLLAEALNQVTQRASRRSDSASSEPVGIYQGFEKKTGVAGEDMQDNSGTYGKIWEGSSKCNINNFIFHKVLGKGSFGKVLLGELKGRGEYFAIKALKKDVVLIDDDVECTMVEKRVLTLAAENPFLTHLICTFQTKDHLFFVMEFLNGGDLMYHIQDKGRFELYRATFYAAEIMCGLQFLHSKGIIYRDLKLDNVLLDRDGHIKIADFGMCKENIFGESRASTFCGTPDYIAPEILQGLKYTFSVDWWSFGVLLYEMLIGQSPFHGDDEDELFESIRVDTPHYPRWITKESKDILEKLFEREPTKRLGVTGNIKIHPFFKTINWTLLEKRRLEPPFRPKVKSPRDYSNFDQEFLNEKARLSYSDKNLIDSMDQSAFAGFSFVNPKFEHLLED
Method in brief: as §1

PRKCH (PKC eta) = biological target: T11, PRKCH (PKC eta) (Homo sapiens, UniProt P24723)
T11 construct: purchased Thermo Fisher Scientific
Method in brief: as §1

RET = biological target: T12, RET (Homo sapiens, UniProt P07949)
T12 construct: purchased Thermo Fisher Scientific
T12 sequence (P07949 29-1114): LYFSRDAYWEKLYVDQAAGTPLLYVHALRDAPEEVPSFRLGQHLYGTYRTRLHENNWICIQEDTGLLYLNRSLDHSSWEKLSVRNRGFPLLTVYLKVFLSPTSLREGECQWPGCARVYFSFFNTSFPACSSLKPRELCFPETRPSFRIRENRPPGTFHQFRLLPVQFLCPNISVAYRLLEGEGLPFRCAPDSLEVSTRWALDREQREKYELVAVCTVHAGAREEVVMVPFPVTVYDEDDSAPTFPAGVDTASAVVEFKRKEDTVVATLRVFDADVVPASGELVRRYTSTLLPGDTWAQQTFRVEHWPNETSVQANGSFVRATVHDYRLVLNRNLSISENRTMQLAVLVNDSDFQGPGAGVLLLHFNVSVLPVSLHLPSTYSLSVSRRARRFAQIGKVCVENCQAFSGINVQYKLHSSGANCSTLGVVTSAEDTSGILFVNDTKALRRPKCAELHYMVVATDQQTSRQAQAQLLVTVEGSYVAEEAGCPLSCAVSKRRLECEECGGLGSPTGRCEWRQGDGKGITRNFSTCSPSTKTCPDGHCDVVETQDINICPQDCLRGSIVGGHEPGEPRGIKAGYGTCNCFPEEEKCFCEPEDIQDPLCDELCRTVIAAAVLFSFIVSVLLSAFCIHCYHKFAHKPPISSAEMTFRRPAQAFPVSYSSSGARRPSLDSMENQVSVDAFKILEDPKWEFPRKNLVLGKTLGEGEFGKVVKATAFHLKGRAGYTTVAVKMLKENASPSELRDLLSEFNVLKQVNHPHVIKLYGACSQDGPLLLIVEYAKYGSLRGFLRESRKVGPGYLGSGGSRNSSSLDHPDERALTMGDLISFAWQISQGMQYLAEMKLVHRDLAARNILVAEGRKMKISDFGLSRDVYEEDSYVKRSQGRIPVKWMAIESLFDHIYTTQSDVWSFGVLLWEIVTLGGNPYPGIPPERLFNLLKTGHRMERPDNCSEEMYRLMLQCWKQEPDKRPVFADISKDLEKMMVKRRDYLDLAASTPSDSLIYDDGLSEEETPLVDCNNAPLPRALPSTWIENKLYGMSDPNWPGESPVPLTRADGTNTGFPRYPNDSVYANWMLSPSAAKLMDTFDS
Method in brief: as §1

RET A883F = biological target: T13, RET A883F (Homo sapiens, UniProt P07949, A883F)
T13 construct: purchased Thermo Fisher Scientific
T13 sequence (P07949 29-1114 A883F): as the sequence (P07949 29-1114) above, with A855F counted along it
Method in brief: as §1

STK4 (MST1) = biological target: T14, STK4 (MST1) (Homo sapiens, UniProt Q13043)
T14 construct: purchased Thermo Fisher Scientific
T14 sequence (Q13043 1-487): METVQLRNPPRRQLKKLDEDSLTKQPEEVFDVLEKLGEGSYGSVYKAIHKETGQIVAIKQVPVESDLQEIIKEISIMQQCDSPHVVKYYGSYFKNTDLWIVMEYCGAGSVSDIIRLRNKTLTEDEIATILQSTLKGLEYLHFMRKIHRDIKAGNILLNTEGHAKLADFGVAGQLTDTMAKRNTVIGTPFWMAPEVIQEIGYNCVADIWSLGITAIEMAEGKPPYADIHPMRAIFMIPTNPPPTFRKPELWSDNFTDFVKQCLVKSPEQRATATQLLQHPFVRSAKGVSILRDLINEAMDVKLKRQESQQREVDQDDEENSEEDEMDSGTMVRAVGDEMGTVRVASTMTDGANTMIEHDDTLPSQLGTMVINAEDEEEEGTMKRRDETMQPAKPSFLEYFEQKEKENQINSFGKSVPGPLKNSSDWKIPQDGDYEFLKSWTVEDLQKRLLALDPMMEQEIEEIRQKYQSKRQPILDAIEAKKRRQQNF
Method in brief: as §1

COc1ccc2c(c1OC)c(=O)n1c3ccc(O)cc3c3ccnc2c31 [MW01, 5-Hydroxy-10,11-dimethoxy-9H-benzo[c]indolo[3,2,1-ij][1,5]naphthyridin-9-one]
inhibition at 1 µM (ABL1 F317I): 8%
inhibition at 10 µM (ABL1 F317I): 19%
inhibition at 1 µM (ABL1 F317L): 8%
inhibition at 10 µM (ABL1 F317L): 13%
inhibition at 1 µM (CDK18/cyclin Y): 5%
inhibition at 10 µM (CDK18/cyclin Y): 15%
inhibition at 1 µM (CDK4/cyclin D1): -8%
inhibition at 10 µM (CDK4/cyclin D1): -4%
inhibition at 1 µM (DAPK1): 8%
inhibition at 10 µM (DAPK1): 14%
inhibition at 1 µM (EPHA5): -4%
inhibition at 10 µM (EPHA5): 7%
inhibition at 1 µM (FRK (PTK5)): 15%
inhibition at 10 µM (FRK (PTK5)): 22%
inhibition at 1 µM (MAPKAPK2): 3%
inhibition at 10 µM (MAPKAPK2): 3%
inhibition at 1 µM (PI4KA (PI4K alpha)): 13%
inhibition at 10 µM (PI4KA (PI4K alpha)): 23%
inhibition at 1 µM (PRKCD (PKC delta)): 6%
inhibition at 10 µM (PRKCD (PKC delta)): 17%
inhibition at 1 µM (PRKCH (PKC eta)): 1%
inhibition at 10 µM (PRKCH (PKC eta)): 7%
inhibition at 1 µM (RET): 15%
inhibition at 10 µM (RET): 34%
inhibition at 1 µM (RET A883F): 10%
inhibition at 10 µM (RET A883F): 24%
inhibition at 1 µM (STK4 (MST1)): 4%
inhibition at 10 µM (STK4 (MST1)): 11%

COc1ccc2cc3c(N)nn(C(=O)c4cccc(N(C)C)c4)c3nc2c1 [MW05, (3-Amino-7-methoxypyrazolo[3,4-b]quinolin-1-yl)-[3-(dimethylamino)phenyl]methanone]
inhibition at 1 µM (ABL1 F317I): 6%
inhibition at 10 µM (ABL1 F317I): -1%
inhibition at 1 µM (ABL1 F317L): 6%
inhibition at 10 µM (ABL1 F317L): 4%
inhibition at 1 µM (CDK18/cyclin Y): 13%
inhibition at 10 µM (CDK18/cyclin Y): 55%
inhibition at 1 µM (CDK4/cyclin D1): -3%
inhibition at 10 µM (CDK4/cyclin D1): -1%
inhibition at 1 µM (DAPK1): 3%
inhibition at 10 µM (DAPK1): 3%
inhibition at 1 µM (EPHA5): -8%
inhibition at 10 µM (EPHA5): -16%
inhibition at 1 µM (FRK (PTK5)): 9%
inhibition at 10 µM (FRK (PTK5)): 6%
inhibition at 1 µM (MAPKAPK2): 4%
inhibition at 10 µM (MAPKAPK2): -6%
inhibition at 1 µM (PI4KA (PI4K alpha)): 1%
inhibition at 10 µM (PI4KA (PI4K alpha)): -1%
inhibition at 1 µM (PRKCD (PKC delta)): 14%
inhibition at 10 µM (PRKCD (PKC delta)): 0%
inhibition at 1 µM (PRKCH (PKC eta)): -3%
inhibition at 10 µM (PRKCH (PKC eta)): -9%
inhibition at 1 µM (RET): 9%
inhibition at 10 µM (RET): 12%
inhibition at 1 µM (RET A883F): 7%
inhibition at 10 µM (RET A883F): 3%
inhibition at 1 µM (STK4 (MST1)): 4%
inhibition at 10 µM (STK4 (MST1)): 3%
